Each structure is given as a SMILES string.

The subject of the first assay is RKN cells. Kind of assay: RKN cell profiling assay (cell viability, CellTiter-Glo). It is filed as cell-based. Conditions: 96 h, 96 h exposure, read-out: Cell Killing EC50. How it is done:
RKN cells were suspended in assay medium (F-12 medium supplemented with 10% FBS and penicillin/streptomycin) and seeded at 1,000 cells per well (30 μL total volume) in opaque white 384-well plates (Corning). Cells were allowed to adhere for 24 h at 37° C. (95% humidity, 5% CO2) and then exposed to compounds disclosed herein for 72 h, or in the present case, 96 h. DMSO stock solutions of compounds were added to cells using a D300e Digital Dispenser (Tecan). The final DMSO concentration in each well was normalized to 0.5% (v/v) after compound treatment. Cell viability was measured using CellTiter-Glo (Promega). After incubation for 15 min at room temperature, luminescence was measured using a PHERAstar FSX microplate reader (BMG Labtech). Ferroptosis rescue experiments were performed as described previously using cells treated with ferrostatin-1 (fer-1, 1.5 μM) when seeding assay plates. Dose-response data were analyzed to determine EC50 values with GraphPad Prism 9 software using a four-parameter logistic equation or CDD Vault (Collaborative Drug Discovery) using the Levenberg-Marquardt algorithm.
The term EC50 denotes the concentration needed to bring the measured effect to its halfway point. On to `N=S(=O)(CCc1cccc(Cl)c1F)CC[C@H](N)C(=O)O` (some centres unmarked) [Compound 28], for which the EC50 was at least 1000 µM.

Take `CC(C)(C)CCS(=N)(=O)CC[C@H](N)C(=O)OC(C)(C)C` (some centres unmarked) [Compound 96]: the EC50 is at least 1000 µM. For the compound `CCCCS(=N)(=O)CC[C@H](N)C(=O)NC` (some centres unmarked) [Compound 107], the EC50 is at least 1000 µM.

In the case of `CC(C)(C)CCS(=N)(=O)CC[C@H](N)C(=O)Nc1nccs1` (some centres unmarked) [Compound 121], the EC50 is at least 1000 µM. With `N[C@@H](CC[S@@](=O)(CCCC(F)(F)F)=NP(=O)(O)O)C(=O)O` [Compound 138, (S)-2-amino-4-((S)-4,4,4-trifluoro-N-phosphonobutylsulfonimidoyl)butanoic acid], the EC50 was below 1000 µM. Consider `CCCCS(=N)(=O)CC[C@H](N)c1nnn[nH]1` (stereo partly drawn) [Compound 200, (1S)-3-(butylsulfonimidoyl)-1-(1H-tetrazol-5-yl)propan-1-amine], for which the EC50 is at least 1000 µM.

The assay is the same for the next values; noted with them: cell viability, read-out: Cell Killing EC50.
Turning to `N=S(=O)(CCC(c1ccc(-c2ccccc2Cl)cc1)C(F)(F)F)CC[C@H](N)C(=O)O` (single isomer, unassigned) [Compound 219], the concentration for a half-maximal effect (EC50) was at least 1000 µM. The same measure, in the same setting: next, `N=[S@](=O)(CC[C@H](N)C(=O)O)CCC(O)(c1ccccc1)C(F)(F)F` (single isomer, unassigned) [Compound 346]: at least 1000 µM; `N=S(=O)(CCC(c1ccc(-c2ccccc2F)cc1)C(F)(F)F)CC[C@H](N)C(=O)O` (some centres unmarked) [Compound 217]: below 1000 µM; `N=S(=O)(CCC(c1ccc(-c2ccccc2Cl)cc1)C(F)(F)F)CC[C@H](N)C(=O)O` (some centres unmarked) [Compound 220]: below 1000 µM. In the case of `N=S(=O)(CCC(c1ccc(-c2ccccc2Cl)cc1)C(F)(F)F)CC[C@H](N)C(=O)O` (some centres unmarked) [Compound 221], the EC50 is below 1000 µM.

Regarding `N=S(=O)(CCC(c1ccc(C2CC2)cc1)C(F)(F)F)CC[C@H](N)C(=O)O` (some centres unmarked) [Compound 225], the 50% effective concentration (EC50) was below 1000 µM. `N=S(=O)(CCC(c1ccc(-c2ccc(Br)cc2)cc1)C(F)(F)F)CC[C@H](N)C(=O)O` (some centres unmarked) [Compound 226]: the EC50 was below 1000 µM.

`N=S(=O)(CCC(c1ccc(-c2cn[nH]c2)cc1)C(F)(F)F)CC[C@H](N)C(=O)O` (some centres unmarked) [Compound 227]: the EC50 was at least 1000 µM. Same read-out and setting: in the case of `N=S(=O)(CCC(c1ccc(-c2cc[nH]n2)cc1)C(F)(F)F)CC[C@H](N)C(=O)O` (some centres unmarked) [Compound 228] it was at least 1000 µM; in that of `N=S(=O)(CCC(c1ccc(-c2cccc(C(N)=O)c2)cc1)C(F)(F)F)CC[C@H](N)C(=O)O` (some centres unmarked) [Compound 229], at least 1000 µM; in that of `CNC(=O)c1cccc(-c2ccc(C(CCS(=N)(=O)CC[C@H](N)C(=O)O)C(F)(F)F)cc2)c1` (some centres unmarked) [Compound 230], at least 1000 µM. As for `N=S(=O)(CCC(c1ccc(-c2ccc(C(F)F)cc2)cc1)C(F)(F)F)CC[C@H](N)C(=O)O` (some centres unmarked) [Compound 231], the EC50 was below 1000 µM.

As for `N=S(=O)(CCC(c1ccc(-c2ccccc2O)cc1)C(F)(F)F)CC[C@H](N)C(=O)O` (some centres unmarked) [Compound 235], the EC50 was below 1000 µM.

On to `CC(C)(O)c1cccc(-c2ccc(C(CCS(=N)(=O)CC[C@H](N)C(=O)O)C(F)(F)F)cc2)c1` (some centres unmarked) [Compound 241], for which the concentration for a half-maximal effect (EC50) was at least 1000 µM. Regarding `N=S(=O)(CCC(c1ccc(-c2cccnc2)cc1)C(F)(F)F)CC[C@H](N)C(=O)O` (some centres unmarked) [Compound 243], the EC50 is at least 1000 µM.

Take `N=S(=O)(CCC(c1ccc(-c2ccc(C(N)=O)nc2)cc1)C(F)(F)F)CC[C@H](N)C(=O)O` (some centres unmarked) [Compound 245]: the EC50 is at least 1000 µM. For `Cc1ccc(-c2ccc(C(CCS(=N)(=O)CC[C@H](N)C(=O)O)C(F)(F)F)cc2)cn1` (some centres unmarked) [Compound 246], the EC50 was at least 1000 µM. On the same count and under the same terms, next, `Cc1nc(Cl)ccc1-c1ccc(C(CCS(=N)(=O)CC[C@H](N)C(=O)O)C(F)(F)F)cc1` (some centres unmarked) [Compound 248]: below 1000 µM.

As for `CN1CCN(c2ccc(-c3ccc(C(CCS(=N)(=O)CC[C@H](N)C(=O)O)C(F)(F)F)cc3)cn2)CC1` (some centres unmarked) [Compound 249], the EC50 was at least 1000 µM. For the compound `N=S(=O)(CCC(c1ccc(-c2cnc(N)nc2)cc1)C(F)(F)F)CC[C@H](N)C(=O)O` (some centres unmarked) [Compound 251], the 50% effective concentration (EC50) is at least 1000 µM. With `N=S(=O)(CCC(c1ccc(-c2cnc(C3CC3)nc2)cc1)C(F)(F)F)CC[C@H](N)C(=O)O` (some centres unmarked) [Compound 252], the EC50 was at least 1000 µM. For the compound `N=S(=O)(CCC(c1ccc(-c2cnc3[nH]ccc3c2)cc1)C(F)(F)F)CC[C@H](N)C(=O)O` (some centres unmarked) [Compound 253], the EC50 is below 1000 µM. Turning to `N=S(=O)(CCC(c1ccc(-c2cnc3[nH]ncc3c2)cc1)C(F)(F)F)CC[C@H](N)C(=O)O` (some centres unmarked) [Compound 254], the EC50 is at least 1000 µM.

For `N=S(=O)(CCC(c1ccc(-c2ccc3cn[nH]c3c2)cc1)C(F)(F)F)CC[C@H](N)C(=O)O` (some centres unmarked) [Compound 255], the EC50 was at least 1000 µM. For the compound `N=S(=O)(CCC(c1ccc(-c2ccc(Cl)s2)cc1)C(F)(F)F)CC[C@H](N)C(=O)O` (some centres unmarked) [Compound 256], the EC50 was below 1000 µM. On to `N=S(=O)(CCC(c1ccc(-c2ccsc2)cc1)C(F)(F)F)CC[C@H](N)C(=O)O` (some centres unmarked) [Compound 257], for which the EC50 was below 1000 µM.

`N=S(=O)(CCC(c1ccc(-c2ccoc2)cc1)C(F)(F)F)CC[C@H](N)C(=O)O` (some centres unmarked) [Compound 258]: the half-maximal effective concentration (EC50) was below 1000 µM. Regarding `N=S(=O)(CCC(c1ccc(C2=CCNCC2)cc1)C(F)(F)F)CC[C@H](N)C(=O)O` (some centres unmarked) [Compound 259], the EC50 was at least 1000 µM.

Regarding `C=C(c1ccc(C(CCS(=N)(=O)CC[C@H](N)C(=O)O)C(F)(F)F)cc1)C(F)(F)F` (some centres unmarked) [Compound 260], the EC50 is at least 1000 µM. Same read-out and setting: next, `C=Cc1ccc(C(CCS(=N)(=O)CC[C@H](N)C(=O)O)C(F)(F)F)cc1` (some centres unmarked) [Compound 261]: below 1000 µM.

For the compound `C=C(C)c1ccc(C(CCS(=N)(=O)CC[C@H](N)C(=O)O)C(F)(F)F)cc1` (some centres unmarked) [Compound 262], the EC50 is below 1000 µM.

Consider `CC(C)(O)c1ccc(C(CCS(=N)(=O)CC[C@H](N)C(=O)O)C(F)(F)F)cc1` (some centres unmarked) [Compound 263], for which the EC50 is at least 1000 µM. For `COc1ccccc1-c1ccc(C(CCS(=N)(=O)CC[C@H](N)C(=O)O)C(F)(F)F)cc1` (some centres unmarked) [Compound 264], the EC50 was below 1000 µM. With `Cc1ccccc1-c1ccc(C(CCS(=N)(=O)CC[C@H](N)C(=O)O)C(F)(F)F)cc1` (some centres unmarked) [Compound 265], the EC50 was below 1000 µM.

`CC(C)c1ccccc1-c1ccc(C(CCS(=N)(=O)CC[C@H](N)C(=O)O)C(F)(F)F)cc1` (some centres unmarked) [Compound 266]: the EC50 was below 1000 µM.

As for `N=S(=O)(CCC(c1ccc(-c2ccccc2C(F)(F)F)cc1)C(F)(F)F)CC[C@H](N)C(=O)O` (some centres unmarked) [Compound 267], the EC50 is below 1000 µM.

For the compound `COc1ccc(-c2ccc(C(CCS(=N)(=O)CC[C@H](N)C(=O)O)C(F)(F)F)cc2)c(Cl)c1` (some centres unmarked) [Compound 268], the EC50 is below 1000 µM. With `N=S(=O)(CCC(c1ccc(-c2ccc(Cl)cc2Cl)cc1)C(F)(F)F)CC[C@H](N)C(=O)O` (some centres unmarked) [Compound 269], the EC50 was below 1000 µM. Still for that read-out and setting: next, `N=S(=O)(CCC(c1ccc(-c2ccc(O)cc2Cl)cc1)C(F)(F)F)CC[C@H](N)C(=O)O` (some centres unmarked) [Compound 270]: below 1000 µM; `N=S(=O)(CCC(c1ccc(-c2ccc(F)cc2Cl)cc1)C(F)(F)F)CC[C@H](N)C(=O)O` (some centres unmarked) [Compound 271]: below 1000 µM; `C#Cc1ccc(C(CCS(=N)(=O)CC[C@H](N)C(=O)O)C(F)(F)F)cc1` (some centres unmarked) [Compound 272]: below 1000 µM. In the case of `N=S(=O)(CCC(c1cccc(C#Cc2ccccc2)c1)C(F)(F)F)CC[C@H](N)C(=O)O` (some centres unmarked) [Compound 273], the EC50 was at least 1000 µM. Turning to `Cc1cc(Cl)ccc1-c1ccc(C(CCS(=N)(=O)CC[C@H](N)C(=O)O)C(F)(F)F)cc1` (some centres unmarked) [Compound 275], the EC50 was below 1000 µM. As for `Cc1ccc(-c2ccc(C(CCS(=N)(=O)CC[C@H](N)C(=O)O)C(F)(F)F)cc2)c(Cl)c1` (some centres unmarked) [Compound 276], the EC50 was below 1000 µM. Regarding `N=S(=O)(CCC(c1ccc(-c2ccc(Cl)cc2)cc1)C(F)(F)F)CC[C@H](N)C(=O)O` (some centres unmarked) [Compound 277], the EC50 was below 1000 µM. Take `Cc1cc(F)ccc1-c1ccc(C(CCS(=N)(=O)CC[C@H](N)C(=O)O)C(F)(F)F)cc1` (some centres unmarked) [Compound 278]: the EC50 was below 1000 µM.

As to `Cc1ccc(-c2ccc(C(CCS(=N)(=O)CC[C@H](N)C(=O)O)C(F)(F)F)cc2)c(C)c1` (some centres unmarked) [Compound 280], the EC50 is below 1000 µM. With `N=S(=O)(CCC(c1ccc(-c2ccc(F)cc2O)cc1)C(F)(F)F)CC[C@H](N)C(=O)O` (some centres unmarked) [Compound 281], the EC50 was below 1000 µM. Regarding `N=S(=O)(CCC(c1ccc(-c2ccc(Cl)cc2O)cc1)C(F)(F)F)CC[C@H](N)C(=O)O` (some centres unmarked) [Compound 282], the EC50 is below 1000 µM.

For `Cc1cc(Cl)ccc1-c1cccc(C(CCS(=N)(=O)CC[C@H](N)C(=O)O)C(F)(F)F)c1` (some centres unmarked) [Compound 283], the EC50 was at least 1000 µM. Same read-out and setting: next, `Cc1ccc(-c2cccc(C(CCS(=N)(=O)CC[C@H](N)C(=O)O)C(F)(F)F)c2)c(F)c1` (some centres unmarked) [Compound 284]: at least 1000 µM. Take `Cc1ccc(-c2cccc(C(CCS(=N)(=O)CC[C@H](N)C(=O)O)C(F)(F)F)c2)cc1` (some centres unmarked) [Compound 285]: the concentration for a half-maximal effect (EC50) is at least 1000 µM.

As for `Cc1cccc(-c2cccc(C(CCS(=N)(=O)CC[C@H](N)C(=O)O)C(F)(F)F)c2)c1` (some centres unmarked) [Compound 286], the EC50 is at least 1000 µM. As for `N=S(=O)(CCC(c1cccc(-c2cccc(F)c2)c1)C(F)(F)F)CC[C@H](N)C(=O)O` (some centres unmarked) [Compound 287], the EC50 is at least 1000 µM. On to `N=S(=O)(CCC(c1cccc(-c2ccc(Cl)cc2Cl)c1)C(F)(F)F)CC[C@H](N)C(=O)O` (some centres unmarked) [Compound 288], for which the EC50 was at least 1000 µM. Still for that read-out and setting: in the case of `Cc1ccc(-c2cccc(C(CCS(=N)(=O)CC[C@H](N)C(=O)O)C(F)(F)F)c2)cc1F` (some centres unmarked) [Compound 290] it was at least 1000 µM.

Values taken from patent US20260034094A1, “COMPOSITIONS AND METHODS FOR INDUCING FERROPTOSIS” (Kojin Therapeutics, Inc., priority 2022, published 2026).
